From patent US8178678B2, “Bis-quaternary ammonium salts and methods for modulating neuronal nicotinic acetylcholine receptors” (University of Kentucky Research Foundation, priority 2006, dated 2012)
Where two headings read alike, the source gives them in different places.

How the values were obtained:
[1] = tested on: nicotinic receptors mediating S-nicotine-evoked [^3H]DA release in rat striatal slices; assay: Inhibition of S-nicotine-evoked [^3H]dopamine release from superfused rat striatal slices; assay type: cell-based; details: for inhibition at 0.1 µM: 1 h, read-out: [^3H]DA release, % inhibition of S-nicotine-evoked release
Summary of the method: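 Superfused rat striatal slices preloaded with 0.1 μM [3H]DA, in Krebs buffer with nomifensine and pargyline (10 μM each), 34 °C. Analogs (100 nM) given 60 min before 10 μM S-nicotine; tritium overflow by scintillation, inhibition expressed as percent of nicotine-evoked overflow without analog; full concentration-effect curves where […] given.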

[2] = target: T1, Rat Striatal Nicotinic Receptors ([^3H]MLA binding sites; α7) (Rattus norvegicus, UniProt Q05941); assay: Inhibition of [^3H]MLA (methyllycaconitine) binding
T1 construct: Whole brain, excluding cortex and cerebellum, was homogenized in 20 vol of ice-cold buffer; from tissue; host or cells: rat brain membranes (whole brain excluding cortex and cerebellum)
Summary of the method: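 Rat brain membranes were washed by repeated centrifugation at 25,000 g, with a 10 min incubation at 37° C. in between. Samples of 250 μl, containing 100-140 μg of membrane protein, 3 nM [^3H]-methyllycaconitine and test analog in 50 mM Tris assay buffer, were incubated in 96-well plates for 60 min at room temperature. Nonspecific binding was defined with 10 μM S-nicotine. Bound radioactivity was collected on polyethylenimine-soaked GF/B filter plates and counted on a TopCount.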

[3] = target: T2, Rat Striatal Nicotinic Receptors ([^3H]NIC binding sites; α4β2) (Rattus norvegicus, UniProt P09483+P12390); assay: Inhibition of [^3H]NIC binding
T2 construct: Whole brain, excluding cortex and cerebellum, was homogenized in 20 vol of ice-cold buffer; from tissue; host or cells: rat brain membranes (whole brain excluding cortex and cerebellum)

[4] = full concentration effect, [^3H]MLA, nonspecific S-nicotine, rat brain membranes, read-out: [^3H]MLA binding, Ki
[5] = full concentration effect, 3 nM [^3H]NIC, nonspecific 10 μM cytisine, rat brain membranes, read-out: [^3H]NIC binding, Ki
[6] = 100 nM analog superfused 60 min before NIC 10 μM, rat striatal slices

T1 sequence (Q05941 23-502): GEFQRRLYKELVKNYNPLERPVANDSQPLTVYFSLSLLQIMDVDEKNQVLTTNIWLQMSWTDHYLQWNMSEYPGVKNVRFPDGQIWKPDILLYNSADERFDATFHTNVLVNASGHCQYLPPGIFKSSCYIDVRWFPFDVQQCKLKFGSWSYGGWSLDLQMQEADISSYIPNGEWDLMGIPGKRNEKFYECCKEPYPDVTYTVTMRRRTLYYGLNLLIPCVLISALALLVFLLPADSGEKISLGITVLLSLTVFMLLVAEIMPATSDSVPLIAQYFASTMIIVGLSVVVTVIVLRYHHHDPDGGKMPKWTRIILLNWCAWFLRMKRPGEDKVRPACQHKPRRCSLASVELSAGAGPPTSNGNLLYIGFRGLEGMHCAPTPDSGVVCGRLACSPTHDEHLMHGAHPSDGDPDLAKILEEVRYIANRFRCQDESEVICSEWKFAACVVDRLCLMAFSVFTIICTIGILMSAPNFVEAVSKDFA
T2 sequence (P09483 31-630): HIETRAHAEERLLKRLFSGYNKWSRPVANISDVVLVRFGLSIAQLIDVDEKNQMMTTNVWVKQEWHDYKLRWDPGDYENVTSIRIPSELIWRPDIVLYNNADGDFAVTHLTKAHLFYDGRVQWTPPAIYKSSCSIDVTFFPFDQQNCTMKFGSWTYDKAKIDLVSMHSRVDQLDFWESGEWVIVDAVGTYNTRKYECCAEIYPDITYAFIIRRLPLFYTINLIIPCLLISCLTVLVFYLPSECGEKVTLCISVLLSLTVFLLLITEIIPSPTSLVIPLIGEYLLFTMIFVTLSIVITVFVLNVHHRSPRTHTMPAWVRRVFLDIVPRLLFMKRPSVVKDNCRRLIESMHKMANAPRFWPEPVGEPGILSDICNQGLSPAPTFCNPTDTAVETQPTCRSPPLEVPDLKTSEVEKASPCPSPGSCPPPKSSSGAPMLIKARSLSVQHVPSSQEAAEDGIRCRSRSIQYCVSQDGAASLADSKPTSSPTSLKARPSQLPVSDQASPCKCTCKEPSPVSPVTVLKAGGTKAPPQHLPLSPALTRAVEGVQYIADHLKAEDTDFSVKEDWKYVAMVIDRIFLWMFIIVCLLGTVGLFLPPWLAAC
T2 sequence (P12390 25-500): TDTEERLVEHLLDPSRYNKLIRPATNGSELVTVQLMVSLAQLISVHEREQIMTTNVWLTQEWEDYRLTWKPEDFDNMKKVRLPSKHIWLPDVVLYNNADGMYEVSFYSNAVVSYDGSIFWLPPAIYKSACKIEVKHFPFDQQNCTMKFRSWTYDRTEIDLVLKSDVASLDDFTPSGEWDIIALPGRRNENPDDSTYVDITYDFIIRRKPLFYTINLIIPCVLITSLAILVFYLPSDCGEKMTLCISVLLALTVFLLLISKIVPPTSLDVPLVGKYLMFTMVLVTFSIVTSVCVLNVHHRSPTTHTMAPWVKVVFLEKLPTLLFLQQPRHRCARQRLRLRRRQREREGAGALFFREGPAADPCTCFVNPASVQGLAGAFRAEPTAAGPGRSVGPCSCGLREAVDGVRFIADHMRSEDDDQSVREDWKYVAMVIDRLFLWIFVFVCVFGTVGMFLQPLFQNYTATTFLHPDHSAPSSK

SMILES | Ki [2, 4] [µM] | Ki [3, 5] [µM] | inhibition at 0.1 µM [1, 6] [%] | other results
CN1CCC[C@H]1c1ccc[n+](CCCC/C=C\C=C/CCCC[n+]2cccc([C@@H]3CCCN3C)c2)c1 [Example 1, cis-cis-N,N′-(dodeca-5,7-diene-1,12-diyl)-bis-[3-(2′-S-1-methyl-pyrrolidin-2-yl)-pyridinium]dibromide] | > 100 | 1.09 |  | inhibition at 0.1 µM ([1]; Rattus norvegicus): 11%
Cc1cccc[n+]1CCCC/C=C\C=C/CCCC[n+]1ccccc1C [Example 2, cis-cis-N,N′-(dodeca-5,7-diene-1,12-diyl)-bis-(2-methyl-pyridinium)dibromide] |  |  |  | inhibition at 0.1 µM ([1]; Rattus norvegicus): 0%; inhibition at 0.1 µM ([2]; read-out: [^3H]MLA binding, % inhibition): 4.2%; inhibition at 0.1 µM ([3]; 1 h, read-out: [^3H]NIC binding, % inhibition): 11%
Cc1ccc[n+](CCCC/C=C\C=C/CCCC[n+]2cccc(C)c2)c1 [Example 3, cis-cis-N,N′-(dodeca-5,7-diene-1,12-diyl)-bis-(3-methyl-pyridinium)dibromide] | > 100 | > 100 | 31 | 
Cc1cc[n+](CCCC/C=C\C=C/CCCC[n+]2ccc(C)cc2)cc1 [Example 4, cis-cis-N,N′-(dodeca-5,7-diene-1,12-diyl)-bis-(4-methyl-pyridinium)dibromide] |  | > 100 | 58 | Ki [2]: > 100 µM
CN1CCC[C@@H]1c1ccc[n+](CCCCc2ccc(CCCC[n+]3cccc([C@H]4CCCN4C)c3)cc2)c1 [Example 10, N,N′-[1,4-phenylenedi-(4-butanyl)]-bis-[3-(2′-S-1-methyl-pyrrolidin-2-yl)-pyridinium]dibromide] | > 100 | 0.63 | 17 | 
Cc1cccc[n+]1CCCCc1ccc(CCCC[n+]2ccccc2C)cc1 [Example 11, N,N′-[1,4-phenylenedi-(4-butanyl)]-bis-(2-methylpyridinium)dibromide] | > 100 | 5.94 | 37 | 
Cc1ccc[n+](CCCCc2ccc(CCCC[n+]3cccc(C)c3)cc2)c1 [Example 12, N,N′-[1,4-phenylenedi-(4-butanyl)]-bis-(3-methylpyridinium)dibromide] | > 100 | > 100 | 44 | 
Cc1cc[n+](CCCCc2ccc(CCCC[n+]3ccc(C)cc3)cc2)cc1 [Example 13, N,N′-[1,4-phenylenedi-(4-butanyl)]-bis-(4-methylpyridinium)dibromide] | > 100 | > 100 | 32 | 
Cc1cccc[n+]1CCCCC#CC#CCCCC[n+]1ccccc1C [Example 91, N,N′-(5,7-dodecadiyn-1,12-diyl)-bis-(2-methylpyridinium)dichloride] | 23.9 | 4.4 | 6 | 
Cc1ccc[n+](CCCCC#CC#CCCCC[n+]2cccc(C)c2)c1 [Example 92, N,N′-(5,7-dodecadiyn-1,12-diyl)-bis-(3-methylpyridinium)dichloride] |  |  | 18 | Ki [2]: > 100 µM; Ki [3]: 6.36 µM
Cc1cc[n+](CCCCC#CC#CCCCC[n+]2ccc(C)cc2)cc1 [Example 93, N,N′-(5,7-dodecadiyn-1,12-diyl)-bis-(4-methylpyridinium)dichloride] | 5.11 | 8.93 | 19 | 
Cc1cc[n+](CCCCC#CC#CCCCC[n+]2ccc(C)c(C)c2)cc1C [Example 94, N,N′-(5,7-dodecadiyn-1,12-diyl)-bis-(3,4-dimethylpyridinium)dichloride] | 24.1 | 8.6 | 21 | 
Cc1cc(C)c[n+](CCCCC#CC#CCCCC[n+]2cc(C)cc(C)c2)c1 [Example 95, N,N′-(5,7-dodecadiyn-1,12-diyl)-bis-(3,5-dimethylpyridinium)dichloride] |  |  |  | IC50 ([1]; NIC 10 μM, rat striatal slices): > 1 µM; Ki [2]: 25.6 µM; Ki [3]: > 100 µM
C(C#CCCCC[n+]1ccc2c(c1)CCCC2)#CCCCC[n+]1ccc2c(c1)CCCC2 [Example 96, N,N′-(5,7-dodecadiyn-1,12-diyl)-bis-(5,6,7,8-tetrahydroisoquinolinium)dichloride] | 5.36 | 11.3 |  | 
